Measurements: ChEMBL document CHEMBL4507257, “Data for DCP probe ABT-100” (2021)

How the values were obtained:
[1] = target: Calcium/calmodulin-dependent protein kinase type 1D (Homo sapiens) (UniProt Q8IU85); conditions: Compound concentration 1000.0 nM
[2] = target: Cyclin-dependent kinase-like 5 (Homo sapiens) (UniProt O76039); conditions: Compound concentration 1000.0 nM
[3] = target: Serine/threonine-protein kinase MARK2 (Homo sapiens) (UniProt Q7KZI7); conditions: Compound concentration 1000.0 nM
[4] = target: Tyrosine-protein kinase TXK (Homo sapiens) (UniProt P42681); conditions: Compound concentration 1000.0 nM
[5] = target: Serine/threonine-protein kinase D2 (Homo sapiens) (UniProt Q9BZL6); conditions: Compound concentration 1000.0 nM
[6] = target: Beta-2 adrenergic receptor (Homo sapiens) (UniProt P07550); conditions: Compound concentration 10.0 uM
[7] = target: Serine/threonine-protein kinase Sgk1 (Homo sapiens) (UniProt O00141); conditions: Compound concentration 1000.0 nM
[8] = target: 5-hydroxytryptamine receptor 1B (Homo sapiens) (UniProt P28222); conditions: Compound concentration 10.0 uM
[9] = target: Serine/threonine-protein kinase Nek6 (Homo sapiens) (UniProt Q9HC98); conditions: Compound concentration 1000.0 nM
[10] = target: Serine/threonine-protein kinase ULK3 (Homo sapiens) (UniProt Q6PHR2); conditions: Compound concentration 1000.0 nM
[11] = target: Phosphatidylinositol 3-kinase C2 domain-containing subunit gamma (Homo sapiens) (UniProt O75747); conditions: Compound concentration 1000.0 nM
[12] = target: Serine/threonine-protein kinase 26 (Homo sapiens) (UniProt Q9P289); conditions: Compound concentration 1000.0 nM
[13] = tested on: Epidermal growth factor receptor (Homo sapiens), P00533 [UNDEFINED MUTATION]; conditions: Compound concentration 1000.0 nM
[14] = target: Cyclin-dependent kinase 18 (Homo sapiens) (UniProt Q07002); conditions: Compound concentration 1000.0 nM
[15] = tested on: Receptor-type tyrosine-protein kinase FLT3 (Homo sapiens), P36888 [D835V]; conditions: Compound concentration 1000.0 nM
[16] = target: Myosin-IIIa (Homo sapiens) (UniProt Q8NEV4); conditions: Compound concentration 1000.0 nM
[17] = target: Activin receptor type-1-like (Homo sapiens) (UniProt P37023); conditions: Compound concentration 1000.0 nM
[18] = target: Serine/threonine-protein kinase Nek9 (Homo sapiens) (UniProt Q8TD19); conditions: Compound concentration 1000.0 nM
[19] = species on record: Rattus norvegicus; conditions: Compound concentration 10.0 uM
[20] = target: Tyrosine-protein kinase JAK2 (Homo sapiens) (UniProt O60674); conditions: Compound concentration 1000.0 nM
[21] = tested on: eIF-2-alpha kinase GCN2 (Homo sapiens), Q9P2K8 [S808G]; conditions: Compound concentration 1000.0 nM
[22] = tested on: Phosphatidylinositol 4,5-bisphosphate 3-kinase catalytic subunit alpha isoform (Homo sapiens), P42336 [H1047Y]; conditions: Compound concentration 1000.0 nM
[23] = tested on: Epidermal growth factor receptor (Homo sapiens), P00533 [G719S]; conditions: Compound concentration 1000.0 nM
[24] = target: Serine/threonine-protein kinase MRCK alpha (Homo sapiens) (UniProt Q5VT25); conditions: Compound concentration 1000.0 nM
[25] = target: Cyclin-dependent kinase-like 3 (Homo sapiens) (UniProt Q8IVW4); conditions: Compound concentration 1000.0 nM
[26] = target: RAF proto-oncogene serine/threonine-protein kinase (Homo sapiens) (UniProt P04049); conditions: Compound concentration 1000.0 nM
[27] = target: Serine/threonine-protein kinase 32B (Homo sapiens) (UniProt Q9NY57); conditions: Compound concentration 1000.0 nM
[28] = target: Sigma non-opioid intracellular receptor 1 (Homo sapiens, UniProt Q99720); conditions: Compound concentration 10.0 uM
[29] = target: Serine/threonine-protein kinase PLK4 (Homo sapiens) (UniProt O00444); conditions: Compound concentration 1000.0 nM
[30] = target: MAP kinase-activated protein kinase 2 (Homo sapiens) (UniProt P49137); conditions: Compound concentration 1000.0 nM
[31] = target: Protein kinase C theta type (Homo sapiens) (UniProt Q04759); conditions: Compound concentration 1000.0 nM
[32] = target: Serine/threonine-protein kinase NLK (Homo sapiens) (UniProt Q9UBE8); conditions: Compound concentration 1000.0 nM
[33] = target: Serine/threonine-protein kinase 17A (Homo sapiens) (UniProt Q9UEE5); conditions: Compound concentration 1000.0 nM
[34] = target: Sodium-dependent serotonin transporter (Homo sapiens) (UniProt P31645); conditions: Compound concentration 10.0 uM
[35] = target: GABA-A receptor; anion channel (Rattus norvegicus) (UniProt O09028+P15431+P18506+P18508+P19969+P20236+P23574+P23576+P28471+P28473+P30191+P62813+P63079+P63138+Q91ZM7+Q9ES14); conditions: Compound concentration 10.0 uM
[36] = target: Serine/threonine-protein kinase Chk2 (Homo sapiens) (UniProt O96017); conditions: Compound concentration 1000.0 nM
[37] = target: Megakaryocyte-associated tyrosine-protein kinase (Homo sapiens) (UniProt P42679); conditions: Compound concentration 1000.0 nM
[38] = target: Serine/threonine-protein kinase RIO2 (Homo sapiens) (UniProt Q9BVS4); conditions: Compound concentration 1000.0 nM
[39] = tested on: Tyrosine-protein kinase ABL1 (Homo sapiens), P00519 [T315I]; conditions: Compound concentration 1000.0 nM
[40] = target: Inhibitor of nuclear factor kappa-B kinase subunit beta (Homo sapiens) (UniProt O14920); conditions: Compound concentration 1000.0 nM
[41] = target: Wee1-like protein kinase 2 (Homo sapiens) (UniProt P0C1S8); conditions: Compound concentration 1000.0 nM
[42] = target: Serine/threonine-protein kinase B-raf (Homo sapiens) (UniProt P15056); conditions: Compound concentration 1000.0 nM
[43] = target: NUAK family SNF1-like kinase 2 (Homo sapiens) (UniProt Q9H093); conditions: Compound concentration 1000.0 nM
[44] = target: Calcium/calmodulin-dependent protein kinase type II subunit beta (Homo sapiens) (UniProt Q13554); conditions: Compound concentration 1000.0 nM
Chain of Calcium/calmodulin-dependent protein kinase type II subunit beta (Homo sapiens) (Q13554 whole entry): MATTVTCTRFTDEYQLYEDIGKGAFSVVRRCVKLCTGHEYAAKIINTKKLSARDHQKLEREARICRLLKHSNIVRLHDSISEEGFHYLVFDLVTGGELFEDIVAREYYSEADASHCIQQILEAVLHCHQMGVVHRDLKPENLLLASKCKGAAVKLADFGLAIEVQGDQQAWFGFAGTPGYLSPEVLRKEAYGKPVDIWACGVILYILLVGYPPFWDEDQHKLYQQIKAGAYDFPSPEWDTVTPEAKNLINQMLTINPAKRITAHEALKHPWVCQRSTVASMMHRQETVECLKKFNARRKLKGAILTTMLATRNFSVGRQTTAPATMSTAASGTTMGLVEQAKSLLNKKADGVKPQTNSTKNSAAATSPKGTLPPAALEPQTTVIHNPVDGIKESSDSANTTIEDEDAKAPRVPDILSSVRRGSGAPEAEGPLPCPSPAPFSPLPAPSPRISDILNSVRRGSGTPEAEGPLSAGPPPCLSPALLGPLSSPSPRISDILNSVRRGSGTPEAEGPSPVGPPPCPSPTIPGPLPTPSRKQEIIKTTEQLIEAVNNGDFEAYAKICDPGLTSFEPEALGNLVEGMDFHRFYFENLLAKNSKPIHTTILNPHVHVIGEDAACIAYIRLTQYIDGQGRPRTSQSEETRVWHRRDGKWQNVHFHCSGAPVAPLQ

Chain of Protein kinase C theta type (Homo sapiens) (Q04759 whole entry, looked up): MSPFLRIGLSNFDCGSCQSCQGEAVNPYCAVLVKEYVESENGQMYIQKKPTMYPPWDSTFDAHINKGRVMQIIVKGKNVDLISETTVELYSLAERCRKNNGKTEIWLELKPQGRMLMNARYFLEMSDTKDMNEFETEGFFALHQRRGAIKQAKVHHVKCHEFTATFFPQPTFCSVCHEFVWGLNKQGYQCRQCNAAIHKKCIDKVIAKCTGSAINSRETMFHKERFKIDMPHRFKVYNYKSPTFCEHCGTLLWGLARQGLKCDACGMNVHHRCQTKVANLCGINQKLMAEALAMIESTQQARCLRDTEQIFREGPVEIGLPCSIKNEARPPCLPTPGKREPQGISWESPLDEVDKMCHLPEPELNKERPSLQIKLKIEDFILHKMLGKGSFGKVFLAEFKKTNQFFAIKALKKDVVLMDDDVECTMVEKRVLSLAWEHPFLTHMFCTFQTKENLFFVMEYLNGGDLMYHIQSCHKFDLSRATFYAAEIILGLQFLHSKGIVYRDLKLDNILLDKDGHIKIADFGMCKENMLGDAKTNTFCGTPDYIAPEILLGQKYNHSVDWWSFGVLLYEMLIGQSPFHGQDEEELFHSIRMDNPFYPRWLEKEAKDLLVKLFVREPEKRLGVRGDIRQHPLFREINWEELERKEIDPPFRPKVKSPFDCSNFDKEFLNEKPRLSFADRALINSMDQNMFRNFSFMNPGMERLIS
Chain of Tyrosine-protein kinase TXK (Homo sapiens) (P42681 whole entry): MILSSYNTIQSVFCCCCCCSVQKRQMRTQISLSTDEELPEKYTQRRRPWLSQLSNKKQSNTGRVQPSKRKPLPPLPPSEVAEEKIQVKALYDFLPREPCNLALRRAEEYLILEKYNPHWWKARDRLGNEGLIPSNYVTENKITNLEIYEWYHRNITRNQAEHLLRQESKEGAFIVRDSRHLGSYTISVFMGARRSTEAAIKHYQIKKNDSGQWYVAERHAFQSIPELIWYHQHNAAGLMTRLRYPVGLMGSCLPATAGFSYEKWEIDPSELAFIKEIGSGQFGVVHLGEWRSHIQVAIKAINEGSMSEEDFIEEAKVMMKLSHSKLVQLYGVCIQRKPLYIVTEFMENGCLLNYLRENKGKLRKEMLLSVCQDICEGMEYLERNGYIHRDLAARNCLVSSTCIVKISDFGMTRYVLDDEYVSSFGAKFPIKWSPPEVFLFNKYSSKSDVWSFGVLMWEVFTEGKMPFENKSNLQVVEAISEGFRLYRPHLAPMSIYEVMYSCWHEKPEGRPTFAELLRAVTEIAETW
Chain of NUAK family SNF1-like kinase 2 (Homo sapiens) (Q9H093 whole entry): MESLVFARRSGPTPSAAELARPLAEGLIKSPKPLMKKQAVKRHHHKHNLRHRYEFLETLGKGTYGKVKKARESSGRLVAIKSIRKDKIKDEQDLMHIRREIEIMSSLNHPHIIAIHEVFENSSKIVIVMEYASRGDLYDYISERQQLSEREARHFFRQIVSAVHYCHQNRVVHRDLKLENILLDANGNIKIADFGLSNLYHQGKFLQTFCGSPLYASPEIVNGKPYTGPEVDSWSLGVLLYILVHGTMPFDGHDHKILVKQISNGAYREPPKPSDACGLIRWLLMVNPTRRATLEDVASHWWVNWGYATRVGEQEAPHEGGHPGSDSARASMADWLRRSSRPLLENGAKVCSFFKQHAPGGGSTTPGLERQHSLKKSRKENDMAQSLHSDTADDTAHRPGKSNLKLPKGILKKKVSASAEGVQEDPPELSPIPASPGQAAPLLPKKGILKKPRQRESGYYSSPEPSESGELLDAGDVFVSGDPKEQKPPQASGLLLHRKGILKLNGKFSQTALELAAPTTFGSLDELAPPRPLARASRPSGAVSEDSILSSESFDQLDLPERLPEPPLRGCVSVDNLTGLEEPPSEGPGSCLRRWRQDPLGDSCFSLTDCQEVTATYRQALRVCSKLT
Chain of Serine/threonine-protein kinase MARK2 (Homo sapiens) (Q7KZI7 whole entry): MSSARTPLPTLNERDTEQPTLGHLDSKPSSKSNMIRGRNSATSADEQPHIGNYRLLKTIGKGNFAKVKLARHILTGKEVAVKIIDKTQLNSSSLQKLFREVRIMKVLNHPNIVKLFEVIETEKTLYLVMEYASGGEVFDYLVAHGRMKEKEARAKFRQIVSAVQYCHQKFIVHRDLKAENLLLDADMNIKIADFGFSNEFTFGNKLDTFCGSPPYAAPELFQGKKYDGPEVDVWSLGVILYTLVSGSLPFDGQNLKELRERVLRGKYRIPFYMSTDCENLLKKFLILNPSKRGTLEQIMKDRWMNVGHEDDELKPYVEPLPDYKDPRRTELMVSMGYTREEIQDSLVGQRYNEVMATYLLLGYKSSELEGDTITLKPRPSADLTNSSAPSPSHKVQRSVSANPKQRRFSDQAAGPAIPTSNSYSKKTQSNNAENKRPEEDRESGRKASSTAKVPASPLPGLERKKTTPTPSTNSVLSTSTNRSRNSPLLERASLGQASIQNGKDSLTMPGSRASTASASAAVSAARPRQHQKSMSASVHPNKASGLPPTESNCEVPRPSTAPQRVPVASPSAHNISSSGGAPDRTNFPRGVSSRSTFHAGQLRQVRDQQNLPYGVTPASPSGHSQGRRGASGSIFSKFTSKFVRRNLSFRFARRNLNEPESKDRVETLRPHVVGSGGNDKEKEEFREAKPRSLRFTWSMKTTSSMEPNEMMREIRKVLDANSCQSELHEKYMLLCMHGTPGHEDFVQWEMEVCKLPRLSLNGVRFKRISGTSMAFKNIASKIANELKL
Chain of eIF-2-alpha kinase GCN2 (Homo sapiens), Q9P2K8 [S808G] (Q9P2K8 whole entry S808G, canonical isoform): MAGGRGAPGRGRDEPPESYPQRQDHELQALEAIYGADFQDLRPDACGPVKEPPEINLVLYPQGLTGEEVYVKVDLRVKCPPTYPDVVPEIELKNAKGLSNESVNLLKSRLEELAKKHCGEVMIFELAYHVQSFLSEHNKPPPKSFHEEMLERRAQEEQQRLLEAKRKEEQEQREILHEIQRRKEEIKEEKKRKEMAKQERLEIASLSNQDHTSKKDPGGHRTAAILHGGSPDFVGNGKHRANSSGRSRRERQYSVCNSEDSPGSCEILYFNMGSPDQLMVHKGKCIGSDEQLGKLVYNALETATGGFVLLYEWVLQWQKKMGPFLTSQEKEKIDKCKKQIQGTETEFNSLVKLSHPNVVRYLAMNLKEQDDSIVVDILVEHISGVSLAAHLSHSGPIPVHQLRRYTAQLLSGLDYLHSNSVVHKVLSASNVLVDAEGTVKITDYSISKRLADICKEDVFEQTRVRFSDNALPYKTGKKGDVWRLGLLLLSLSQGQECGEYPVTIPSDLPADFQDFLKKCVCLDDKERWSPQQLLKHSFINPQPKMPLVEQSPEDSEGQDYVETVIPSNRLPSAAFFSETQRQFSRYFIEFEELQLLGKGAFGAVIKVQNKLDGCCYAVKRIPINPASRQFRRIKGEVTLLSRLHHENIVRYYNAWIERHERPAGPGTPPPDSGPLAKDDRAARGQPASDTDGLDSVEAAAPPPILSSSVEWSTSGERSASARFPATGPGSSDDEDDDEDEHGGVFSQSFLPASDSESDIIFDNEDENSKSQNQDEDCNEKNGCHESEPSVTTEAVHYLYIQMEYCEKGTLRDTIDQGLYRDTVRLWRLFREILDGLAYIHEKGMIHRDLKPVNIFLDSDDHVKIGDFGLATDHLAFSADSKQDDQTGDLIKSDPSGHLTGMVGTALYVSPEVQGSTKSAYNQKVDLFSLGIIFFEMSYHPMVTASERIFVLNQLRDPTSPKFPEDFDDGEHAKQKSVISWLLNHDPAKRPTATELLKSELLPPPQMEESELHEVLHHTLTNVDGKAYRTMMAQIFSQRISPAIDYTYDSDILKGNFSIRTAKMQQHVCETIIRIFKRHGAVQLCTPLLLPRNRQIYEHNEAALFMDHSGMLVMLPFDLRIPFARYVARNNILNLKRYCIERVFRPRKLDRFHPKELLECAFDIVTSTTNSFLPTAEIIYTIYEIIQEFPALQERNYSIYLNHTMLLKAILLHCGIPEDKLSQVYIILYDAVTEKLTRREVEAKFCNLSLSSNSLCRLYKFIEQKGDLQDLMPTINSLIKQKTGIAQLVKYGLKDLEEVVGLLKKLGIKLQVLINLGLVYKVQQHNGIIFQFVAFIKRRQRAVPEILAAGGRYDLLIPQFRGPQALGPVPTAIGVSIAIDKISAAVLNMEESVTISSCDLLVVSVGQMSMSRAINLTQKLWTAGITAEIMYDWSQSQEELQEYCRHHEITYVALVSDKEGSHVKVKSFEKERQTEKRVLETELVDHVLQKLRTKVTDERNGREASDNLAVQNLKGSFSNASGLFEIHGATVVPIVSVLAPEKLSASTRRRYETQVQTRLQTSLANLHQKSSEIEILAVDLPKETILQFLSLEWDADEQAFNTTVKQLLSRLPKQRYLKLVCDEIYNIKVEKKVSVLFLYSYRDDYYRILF

Cn1cncc1[C@@](O)(COc1ccc(C#N)cc1-c1ccc(OC(F)(F)F)cc1)c1ccc(C#N)cc1 [A-108]
residual activity [1]: 100% | residual activity [2]: 93% | residual activity [3]: 100% | residual activity [4]: 85% | residual activity [5]: 100% | inhibition [6]: 23.1% | residual activity [7]: 100% | inhibition [8]: 3.34% | residual activity [9]: 95% | residual activity [10]: 78% | residual activity [11]: 61% | residual activity [12]: 99% | residual activity [13]: 100% | residual activity [14]: 100% | residual activity [15]: 89% | residual activity [16]: 98% | residual activity [17]: 100% | residual activity [18]: 100% | inhibition [19]: 9.56% | residual activity [20]: 65% | residual activity [21]: 100% | residual activity [22]: 100% | residual activity [23]: 74% | residual activity [24]: 81% | residual activity [25]: 81% | residual activity [26]: 85% | residual activity [27]: 97% | inhibition [28]: 92.3% | residual activity [29]: 84% | residual activity [30]: 61% | residual activity [31]: 100% | residual activity [32]: 100% | residual activity [33]: 100% | inhibition [34]: -7.91% | inhibition [35]: 6.36% | residual activity [36]: 96% | residual activity [37]: 100% | residual activity [38]: 100% | residual activity [39]: 6.1% | residual activity [40]: 100% | residual activity [41]: 100% | residual activity [42]: 100% | residual activity [43]: 100% | residual activity [44]: 90%

Cn1cncc1[C@](O)(COc1ccc(C#N)cc1-c1ccc(OC(F)(F)F)cc1)c1ccc(C#N)cc1 [ABT-100]
residual activity [1]: 100% | residual activity [2]: 100% | residual activity [3]: 95% | residual activity [4]: 87% | residual activity [5]: 84% | inhibition [6]: 0.0774% | residual activity [7]: 76% | inhibition [8]: -4.28% | residual activity [9]: 95% | residual activity [10]: 88% | residual activity [11]: 81% | residual activity [12]: 100% | residual activity [13]: 78% | residual activity [14]: 90% | residual activity [15]: 100% | residual activity [16]: 100% | residual activity [17]: 100% | residual activity [18]: 72% | inhibition [19]: -1.86% | residual activity [20]: 91% | residual activity [21]: 99% | residual activity [22]: 77% | residual activity [23]: 79% | residual activity [24]: 78% | residual activity [25]: 87% | residual activity [26]: 100% | residual activity [27]: 100% | inhibition [28]: 42.5% | residual activity [29]: 94% | residual activity [30]: 63% | residual activity [31]: 79% | residual activity [32]: 89% | residual activity [33]: 100% | inhibition [34]: 1.25% | inhibition [35]: 2.72% | residual activity [36]: 100% | residual activity [37]: 98% | residual activity [38]: 83% | residual activity [39]: 84% | residual activity [40]: 87% | residual activity [41]: 84% | residual activity [42]: 84% | residual activity [43]: 100% | residual activity [44]: 85%
